Experimental data reported in patent US7348425B2, “Inhibitors of HCV replication” (Bristol-Myers Squibb Company, priority 2004, dated 2008).

Key:
HCV replicon = HCV replicon FRET assay; assay type: cell-based; details: Hepatitis C virus; FRET assay; read-out: EC50
Experimental: The IC50 values for compounds were determined using seven different [I]. IC50 values were calculated from the inhibition using the formula y=A+((B−A)/(1+((C/x)^D))). FRET Assay Preparation. To perform the HCV FRET screening assay, 96-well cell culture plates were used. The FRET peptide (Anaspec, Inc.) (Taliani et al., Anal. Biochem. 240:60-67 (1996), hereby incorporated by reference in its entirety) contains a fluorescence donor, EDANS, near one end of the peptide and an acceptor, DABCYL, near the other end. The fluorescence of the peptide is quenched by […] resonance energy transfer (RET) between the donor and the acceptor, but as the NS3 protease cleaves the peptide the products are released from RET quenching and the fluorescence of the donor becomes apparent. The assay reagent was made as follows: 5× cell Luciferase cell culture lysis reagent from Promega (#E153A) diluted to 1× with dH2O, NaCl added to 150 mM final, the FRET peptide diluted to 20 uM final from a 2 mM stock.
To prepare plates, HCV replicon cells, with or without a Renilla luciferase reporter gene, were trypsinized and placed into each well of a 96-well plate with titrated test compounds added in columns 3 through 12; columns 1 and 2 contained a control compound (HCV protease inhibitor), and the bottom row contained cells without compound. The plates were then placed in a CO2 incubator at 37 degrees C.
Assays. Subsequent to addition of the test compounds described above (FRET Assay Preparation), at various times the plate was removed and Alamar blue solution (Trek Diagnostics, #00-100) was added per well as a measure of cellular toxicity. After reading in a Cytoflour 4000 instrument (PE Biosystems), plates were rinsed with PBS and then used for FRET assay by the addition of 30 ul of the FRET peptide assay reagent described above (FRET Assay Preparation) per well. The plate was then placed into the Cytoflour 4000 instrument which had been set to 340 excite/490 emission, automatic mode for 20 cycles and the plate read in a kinetic mode. Typically, the signal to noise using an endpoint analysis after the reads was at least three-fold. Alternatively, after Alamar blue reading, plates were rinsed with PBS, 50 ul of DMEM (high glucose) without phenol red was added and plates were then used for luciferase assay using the Promega Dual-Glo Luciferase Assay System.
Compound analysis was determined by quantification of the relative HCV replicon inhibition and the relative cytotoxicity values. To calculate cytoxicity values, the average Alamar Blue fluorescence signals from the control wells were set as 100% non-toxic. The individual signals in each of the compound test wells were then divided by the average control signal and multiplied by 100% to determine […]. To calculate the HCV replicon inhibition values, an average background value was obtained from the two wells containing the highest amount of HCV protease inhibitor at the end of the assay period. These numbers were similar to those obtained from naïve Huh-7 cells.
The background numbers were then subtracted from the average signal obtained from the control wells and this number was used as 100% activity. The individual signals in each of the compound test wells were then divided by the averaged control values after background subtraction and multiplied by 100% to determine percent activity. EC50 values for a protease inhibitor titration were calculated as the concentration which caused a 50% reduction in FRET or luciferase activity. The two numbers generated for the compound plate, percent cytoxicity and percent activity were used to determine compounds of interest for further analysis.

[1] = target: T1, HCV NS5B RdRp genotype 1b (Hepatitis C virus genotype 1b, UniProt Q9WMX2); assay: Modified HCV NS5B RdRp enzyme assay (with preincubation); assay type: biochemical; details: modified method (with preincubation)
T1 construct: The protein was expressed with an 18 amino acid C-terminal truncation to enhance the solubility; made in house; host or cells: E. coli BL21 (DE3), pET21a
T1 sequence (Q9WMX2 2420-2992): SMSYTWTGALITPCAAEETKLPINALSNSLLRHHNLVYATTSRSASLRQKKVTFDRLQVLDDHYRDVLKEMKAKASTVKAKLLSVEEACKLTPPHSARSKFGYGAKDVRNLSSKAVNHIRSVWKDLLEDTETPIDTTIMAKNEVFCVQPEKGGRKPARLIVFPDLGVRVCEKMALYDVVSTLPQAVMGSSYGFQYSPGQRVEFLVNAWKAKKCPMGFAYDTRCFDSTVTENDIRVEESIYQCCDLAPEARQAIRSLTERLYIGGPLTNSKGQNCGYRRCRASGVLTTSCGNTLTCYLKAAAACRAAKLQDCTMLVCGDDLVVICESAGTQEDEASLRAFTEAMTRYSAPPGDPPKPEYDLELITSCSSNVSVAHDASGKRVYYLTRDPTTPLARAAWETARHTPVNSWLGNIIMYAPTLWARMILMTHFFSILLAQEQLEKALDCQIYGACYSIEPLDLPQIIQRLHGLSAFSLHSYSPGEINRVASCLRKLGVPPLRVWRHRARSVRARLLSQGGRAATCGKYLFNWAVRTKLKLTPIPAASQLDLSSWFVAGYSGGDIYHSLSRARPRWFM
Experimental: HCVNS5B RdRp cloning, expression, and purification. The cDNA encoding the NS5B protein of HCV, genotype 1b, was cloned into the pET21a expression vector. The protein was expressed with an 18 amino acid C-terminal truncation to enhance the solubility. The E. coli competent cell line BL21 (DE3) was used for expression of the protein. Cultures were grown at 37° C. for ˜4 hours until the cultures reached an optical density of 2.0 at 600 nm. The cultures were cooled to 20° C. and induced with 1 mM IPTG. Fresh ampicillin was added to a final concentration of 50 μg/ml and the cells were grown overnight at 20° C.
Cell pellets (3 L) were lysed for purification to yield 15-24 mgs of purified NS5B. The lysis buffer consisted of 20 mM Tris-HCl, pH 7.4, 500 mM NaCl, 0.5% triton X-100, 1 mM DTT, 1 mM EDTA, 20% glycerol, 0.5 mg/ml lysozyme, 10 mM MgCl2, 15 ug/ml deoxyribonuclease I, and Complete TM protease inhibitor tablets (Roche). After addition of the lysis buffer, frozen cell pellets were resuspended using a tissue homogenizer. To reduce the viscosity of the sample, aliquots of the lysate were sonicated on ice using a microtip attached to a Branson sonicator. The sonicated lysate was centrifuged at 100,000×g for 1 hr at 4° C. and filtered through a 0.2 μm filter unit (Corning).
The protein was purified using three sequential chromatography steps: Heparin sepharose CL-6B, polyU sepharose 4B, and Hitrap SP sepharose (Pharmacia). The chromatography buffers were identical to the lysis buffer but contained no lysozyme, deoxyribonuclease I, MgCl2 or protease inhibitor and the NaCl concentration of the buffer was adjusted according to the requirements for charging the protein onto the column. Each column was eluted with a NaCl gradient which varied in length from 5-50 column volumes depending on the column type. After the final chromatography step, the resulting purity of the enzyme is >90% based on SDS-PAGE analysis. The enzyme was aliquoted and stored at −80° C.
Standard HCV NS5B RdRp enzyme assay. HCV RdRp genotype Ib assays were run in a final volume of 60 μl in 96 well plates (Costar 3912). The assay buffer is composed of 20 mM Hepes, pH 7.5, 2.5 mM KCl, 2.5 mM MgCl2, 1 mM DTT, 1.6 U RNAse inhibitor (Promega N2515), 0.1 mg/ml BSA (Promega R3961), and 2% glycerol. All compounds were serially diluted (3-fold) in DMSO and diluted further in water such that the final concentration of DMSO in the assay was 2%. HCV RdRp genotype 1b enzyme was used at a final concentration of 28 nM. A polyA template was used at 6 nM, and a biotinylated oligo-dT12 primer was used at 180 nM final concentration. Template was obtained commercially (Amersham 27-4110). Biotinylated primer was prepared by Sigma Genosys. ^3H-UTP was used at 0.6 μCi (0.29 μM total UTP). Reactions were initiated by the addition of enzyme, incubated at 30° C. for 60 min, and stopped by adding 25 μl of 50 mM EDTA containing SPA beads (4 μg/μl, Amersham RPNQ 0007). Plates were read on a Packard Top Count NXT after >1 hr incubation at room temperature.
Modified HCV NS5B RdRp enzyme assay. A modified enzyme assay was performed essentially as described for the standard enzyme assay except for the following: The biotinylated oligo dT12 primer was precaptured on streptavidin-coated SPA beads by mixing primer and beads in assay buffer and incubating at room temperature for one hour. Unbound primer was removed after centrifugation. The primer-bound beads were resuspended in 20 mM Hepes buffer, pH 7.5 and used in the assay at final concentrations of 20 nM primer and 0.67 μg/μl beads. Order of addition in the assay: enzyme (14 nM) was added to diluted compound followed by the addition of a mixture of template (0.2 nM), ^3H-UTP (0.6 μCi, 0.29 μM), and primer-bound beads, to initiate the reaction; concentrations given are final. Reactions were allowed to proceed for 4 hours at 30° C.
The IC50 values for compounds were determined using seven different [I]. […]

SMILES	EC50 (HCV replicon)	IC50 [1]
Cn1c(C(=O)O)cc2cc(NC(=O)C3(NC(=O)c4ccc5c(C6CCCCC6)c6n(c5c4)CC(=O)Nc4ccccc4-6)CCCC3)ccc21	0.01 to 1 µM	0.02 to 1 µM
CN(C)CCNC(=O)C1=Cc2ccccc2-c2c(C3CCCCC3)c3ccc(C(=O)NC4(C(=O)Nc5ccc6c(c5)cc(C(=O)O)n6C)CCCC4)cc3n2C1	0.01 to 1 µM	0.02 to 1 µM
COC(=O)/C=C/c1ccc2[nH]c(C3(NC(=O)c4ccc5c(C6CCCCC6)c6n(c5c4)CC(=O)Nc4ccccc4-6)CCCC3)nc2c1	< 0.1 µM	0.02 to 1 µM
CCOC(=O)/C=C/c1ccc(NC(=O)C2(NC(=O)c3ccc4c(C5CCCCC5)c5n(c4c3)CC(=O)Nc3ccccc3-5)CCNCC2)cc1	0.01 to 1 µM	0.02 to 1 µM
COC(=O)c1ccc2c(C3CCCCC3)c3n(c2c1)CC(=O)N(CCN(C)C)c1ccccc1-3	1 to 10 µM	> 1 µM
CN1C(=O)Cn2c(c(C3CCCCC3)c3ccc(C(=O)NC4(C(=O)Nc5ccc6c(c5)cc(C(=O)O)n6C)CCCC4)cc32)-c2ccccc21	0.01 to 1 µM	0.02 to 1 µM
O=C1Cn2c(c(C3CCCCC3)c3ccc(C(=O)NS(=O)(=O)N4CCCC4)cc32)-c2ccccc2N1	0.01 to 1 µM	0.02 to 1 µM
CN(Cc1ccccc1)S(=O)(=O)NC(=O)c1ccc2c(C3CCCCC3)c3n(c2c1)CC(=O)Nc1ccccc1-3	0.01 to 1 µM	0.02 to 1 µM
O=C(O)/C=C/c1ccc2[nH]c(C3(NC(=O)c4ccc5c(C6CCCCC6)c6c7ccccc7ncn6c5c4)CCCC3)nc2c1	0.01 to 1 µM	0.02 to 1 µM
CN(C)CCN1C(=O)Cn2c(c(C3CCCCC3)c3ccc(C(=O)O)cc32)-c2ccccc21	0.01 to 1 µM	0.02 to 1 µM
COC(=O)/C=C/c1ccc(CN(C)S(=O)(=O)NC(=O)c2ccc3c(C4CCCCC4)c4n(c3c2)CC(=O)Nc2ccccc2-4)cc1	0.01 to 1 µM	0.02 to 1 µM
COC(=O)c1ccc(CN(C)S(=O)(=O)NC(=O)c2ccc3c(C4CCCCC4)c4n(c3c2)CC(=O)Nc2ccccc2-4)cc1	0.01 to 1 µM	0.02 to 1 µM
CN(Cc1ccc(C(=O)O)cc1)S(=O)(=O)NC(=O)c1ccc2c(C3CCCCC3)c3n(c2c1)CC(=O)Nc1ccccc1-3	1 to 10 µM	0.02 to 1 µM
CN(Cc1ccc(/C=C/C(=O)O)cc1)S(=O)(=O)NC(=O)c1ccc2c(C3CCCCC3)c3n(c2c1)CC(=O)Nc1ccccc1-3	1 to 10 µM	0.02 to 1 µM
COC(=O)/C=C/c1ccc(NC(=O)C2(NC(=O)c3ccc4c(C5CCCCC5)c5n(c4c3)CCCc3sc(C)nc3-5)CCCC2)cc1	> 10 µM	> 1 µM
Cc1nc2c(s1)CCCn1c-2c(C2CCCCC2)c2ccc(C(=O)O)cc21	> 10 µM	> 1 µM
Nc1nc2c(s1)CCCn1c-2c(C2CCCCC2)c2ccc(C(=O)O)cc21	> 10 µM	> 1 µM
Cc1nc2c(s1)CCCn1c-2c(C2CCCCC2)c2ccc(C(=O)NC3(C(=O)Nc4ccc(/C=C/C(=O)O)cc4)CCCC3)cc21	1 to 10 µM	0.02 to 1 µM
N#CC1C(=O)Cn2c(c(C3CCCCC3)c3ccc(C(=O)O)cc32)-c2ccccc21 (centres unmarked)	> 10 µM	0.02 to 1 µM
COc1cc(CNC(=O)c2ccc3c(C4CCCCC4)c4n(c3c2)CC(=O)Nc2ccccc2-4)ccc1O	< 0.1 µM	0.02 to 1 µM
O=C(O)c1ccc2c(C3CCCCC3)c3n(c2c1)CCCc1ocnc1-3	> 10 µM	> 1 µM
COC(=O)/C=C/c1ccc(NC(=O)C2(NC(=O)c3ccc4c(C5CCCCC5)c5n(c4c3)CCCc3sc(N)nc3-5)CCCC2)cc1	> 10 µM	> 1 µM
Nc1nc2c(s1)CCCn1c-2c(C2CCCCC2)c2ccc(C(=O)NC3(C(=O)Nc4ccc(/C=C/C(=O)O)cc4)CCCC3)cc21	1 to 10 µM	0.02 to 1 µM
NC(=O)C1(NC(=O)c2ccc3c(C4CCCCC4)c4n(c3c2)CC(=O)Nc2ccccc2-4)CCCC1	0.01 to 1 µM	0.02 to 1 µM
O=C1Cn2c(c(C3CCCCC3)c3ccc(C(=O)NS(=O)(=O)N4CCN(c5ccccc5)CC4)cc32)-c2ccccc2N1	1 to 10 µM	0.02 to 1 µM
COC(=O)c1ccc2c(c1)CCN(S(=O)(=O)NC(=O)c1ccc3c(C4CCCCC4)c4n(c3c1)CC(=O)Nc1ccccc1-4)C2	1 to 10 µM	0.02 to 1 µM
CS(=O)(=O)NC(=O)c1ccc2c(C3CCCCC3)c3n(c2c1)CC(C(=O)N1CCOCC1)Cc1ccccc1-3 (centres unmarked) [drawing 349]	–	0.02 to 1 µM
